Test results taken from patent US20230295167A1, “POTENT AND SELECTIVE INHIBITORS OF HER2” (DANA-FARBER CANCER INSTITUTE, INC., priority 2020, published 2023).

Columns and labels:
Assay type in all cases: cell-based
Details in all cases: 72 hours
HER2 YVMA (Ba/F3 cells) = molecular target: T1, HER2 YVMA (Ba/F3 cells) (Homo sapiens, UniProt P04626, INS775YVMA); experiment: MTS assay, Ba/F3 cells, HER2 YVMA
T1 construct: expressed in transfected cells; host or cells: Ba/F3
Method: (§1) The IC50 values of the compounds provided herein were measured against kinases in Ba/F3 cells.
(§2) Activities of representative compounds of the present application in inhibiting EGFR and HER2 were tested by MTS assay (abcam®) for Ba/F3 cells. For assays with Ba/F3 cells, 3000 cells were seeded for per well in 96-well plates and were exposed to the indicated compounds with a concentration of 3.3 to 10 μM for 72 hours.

HER2 WT (Ba/F3 cells) = molecular target: T2, HER2 WT (Ba/F3 cells) (Homo sapiens, UniProt P04626); experiment: MTS assay, Ba/F3 cells, HER2 WT
T2 construct: expressed in transfected cells; host or cells: Ba/F3
Method: as §1, §2

EFGR SVD (Ba/F3 cells) = molecular target: T3, EFGR SVD (Ba/F3 cells) (Homo sapiens, UniProt P00533, INS770SVD); experiment: MTS assay, Ba/F3 cells, EFGR SVD
T3 construct: expressed in transfected cells; host or cells: Ba/F3
T3 sequence (P00533 with tags, fused parts or gaps INS770SVD): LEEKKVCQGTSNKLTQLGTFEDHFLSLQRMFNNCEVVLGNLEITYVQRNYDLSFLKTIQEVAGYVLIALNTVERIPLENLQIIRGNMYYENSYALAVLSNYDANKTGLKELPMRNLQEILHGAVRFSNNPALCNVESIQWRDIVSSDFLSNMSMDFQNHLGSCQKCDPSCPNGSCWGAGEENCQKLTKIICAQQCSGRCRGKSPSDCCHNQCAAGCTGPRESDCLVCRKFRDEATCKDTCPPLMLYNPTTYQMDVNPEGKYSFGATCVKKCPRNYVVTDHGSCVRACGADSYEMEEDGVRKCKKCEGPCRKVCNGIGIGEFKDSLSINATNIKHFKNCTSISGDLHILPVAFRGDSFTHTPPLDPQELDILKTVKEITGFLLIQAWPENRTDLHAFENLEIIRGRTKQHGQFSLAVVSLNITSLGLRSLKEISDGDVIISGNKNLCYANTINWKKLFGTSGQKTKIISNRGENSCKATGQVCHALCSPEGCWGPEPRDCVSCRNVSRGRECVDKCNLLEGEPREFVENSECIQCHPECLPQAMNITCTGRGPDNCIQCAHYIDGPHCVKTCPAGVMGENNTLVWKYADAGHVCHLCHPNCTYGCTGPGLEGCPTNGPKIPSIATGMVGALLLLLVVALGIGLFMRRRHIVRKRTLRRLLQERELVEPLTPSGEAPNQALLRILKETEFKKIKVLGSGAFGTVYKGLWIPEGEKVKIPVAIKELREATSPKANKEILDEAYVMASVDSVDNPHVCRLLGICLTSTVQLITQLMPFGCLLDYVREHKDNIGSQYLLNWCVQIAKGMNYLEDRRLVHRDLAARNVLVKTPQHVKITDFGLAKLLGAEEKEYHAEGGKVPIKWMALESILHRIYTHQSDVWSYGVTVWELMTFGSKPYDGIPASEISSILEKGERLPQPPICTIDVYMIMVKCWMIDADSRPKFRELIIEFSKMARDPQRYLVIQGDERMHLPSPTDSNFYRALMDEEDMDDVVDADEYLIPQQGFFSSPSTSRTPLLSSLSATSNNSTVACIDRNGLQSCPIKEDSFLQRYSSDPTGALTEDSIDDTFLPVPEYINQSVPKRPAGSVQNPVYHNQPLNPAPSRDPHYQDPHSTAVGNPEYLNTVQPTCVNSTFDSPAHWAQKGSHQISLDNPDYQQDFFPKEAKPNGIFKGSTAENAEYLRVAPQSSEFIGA
Method: as §1, §2

EFGR WT (Ba/F3 cells) = molecular target: T4, EFGR WT (Ba/F3 cells) (Homo sapiens, UniProt P00533); experiment: MTS assay, Ba/F3 cells, EFGR WT
T4 construct: expressed in transfected cells; host or cells: Ba/F3
T4 sequence (P00533 25-1210): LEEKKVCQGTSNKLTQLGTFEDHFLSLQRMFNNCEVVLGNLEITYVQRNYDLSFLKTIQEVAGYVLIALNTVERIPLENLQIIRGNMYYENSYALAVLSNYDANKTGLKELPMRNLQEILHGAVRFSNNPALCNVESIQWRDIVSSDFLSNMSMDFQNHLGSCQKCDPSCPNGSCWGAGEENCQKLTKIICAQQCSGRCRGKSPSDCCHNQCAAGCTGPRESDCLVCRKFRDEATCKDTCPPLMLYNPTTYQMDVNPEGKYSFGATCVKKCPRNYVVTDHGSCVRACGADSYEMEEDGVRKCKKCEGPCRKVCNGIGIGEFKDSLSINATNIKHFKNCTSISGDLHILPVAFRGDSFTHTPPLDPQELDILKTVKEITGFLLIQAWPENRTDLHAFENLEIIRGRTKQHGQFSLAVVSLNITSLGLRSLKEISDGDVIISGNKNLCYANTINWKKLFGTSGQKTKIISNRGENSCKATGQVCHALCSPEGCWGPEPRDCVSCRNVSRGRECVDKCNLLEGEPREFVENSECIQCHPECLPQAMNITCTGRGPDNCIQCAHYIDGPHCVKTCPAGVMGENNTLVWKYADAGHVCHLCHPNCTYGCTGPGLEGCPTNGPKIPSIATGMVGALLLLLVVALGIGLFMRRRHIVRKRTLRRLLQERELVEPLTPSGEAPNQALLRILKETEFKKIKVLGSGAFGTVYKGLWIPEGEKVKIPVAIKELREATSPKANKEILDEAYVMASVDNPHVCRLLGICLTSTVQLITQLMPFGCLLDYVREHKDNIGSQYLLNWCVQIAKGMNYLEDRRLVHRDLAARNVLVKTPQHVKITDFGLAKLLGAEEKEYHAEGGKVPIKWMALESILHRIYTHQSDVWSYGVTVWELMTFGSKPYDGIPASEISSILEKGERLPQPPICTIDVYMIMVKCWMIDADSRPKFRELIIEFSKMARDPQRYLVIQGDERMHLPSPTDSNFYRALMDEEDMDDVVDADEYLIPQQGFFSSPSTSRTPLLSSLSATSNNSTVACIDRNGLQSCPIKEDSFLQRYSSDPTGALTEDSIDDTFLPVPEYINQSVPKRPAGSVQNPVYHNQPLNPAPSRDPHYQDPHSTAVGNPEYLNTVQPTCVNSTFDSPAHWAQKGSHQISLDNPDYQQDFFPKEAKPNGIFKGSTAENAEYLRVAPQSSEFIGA
Method: as §1, §2

HER2 GSP (Ba/F3 cells) = molecular target: T5, HER2 GSP (Ba/F3 cells) (Homo sapiens, UniProt P04626, INS780GSP); experiment: MTS assay, Ba/F3 cells, HER2 GSP
T5 construct: expressed in transfected cells; host or cells: Ba/F3
T5 sequence (P04626 with tags, fused parts or gaps INS780GSP): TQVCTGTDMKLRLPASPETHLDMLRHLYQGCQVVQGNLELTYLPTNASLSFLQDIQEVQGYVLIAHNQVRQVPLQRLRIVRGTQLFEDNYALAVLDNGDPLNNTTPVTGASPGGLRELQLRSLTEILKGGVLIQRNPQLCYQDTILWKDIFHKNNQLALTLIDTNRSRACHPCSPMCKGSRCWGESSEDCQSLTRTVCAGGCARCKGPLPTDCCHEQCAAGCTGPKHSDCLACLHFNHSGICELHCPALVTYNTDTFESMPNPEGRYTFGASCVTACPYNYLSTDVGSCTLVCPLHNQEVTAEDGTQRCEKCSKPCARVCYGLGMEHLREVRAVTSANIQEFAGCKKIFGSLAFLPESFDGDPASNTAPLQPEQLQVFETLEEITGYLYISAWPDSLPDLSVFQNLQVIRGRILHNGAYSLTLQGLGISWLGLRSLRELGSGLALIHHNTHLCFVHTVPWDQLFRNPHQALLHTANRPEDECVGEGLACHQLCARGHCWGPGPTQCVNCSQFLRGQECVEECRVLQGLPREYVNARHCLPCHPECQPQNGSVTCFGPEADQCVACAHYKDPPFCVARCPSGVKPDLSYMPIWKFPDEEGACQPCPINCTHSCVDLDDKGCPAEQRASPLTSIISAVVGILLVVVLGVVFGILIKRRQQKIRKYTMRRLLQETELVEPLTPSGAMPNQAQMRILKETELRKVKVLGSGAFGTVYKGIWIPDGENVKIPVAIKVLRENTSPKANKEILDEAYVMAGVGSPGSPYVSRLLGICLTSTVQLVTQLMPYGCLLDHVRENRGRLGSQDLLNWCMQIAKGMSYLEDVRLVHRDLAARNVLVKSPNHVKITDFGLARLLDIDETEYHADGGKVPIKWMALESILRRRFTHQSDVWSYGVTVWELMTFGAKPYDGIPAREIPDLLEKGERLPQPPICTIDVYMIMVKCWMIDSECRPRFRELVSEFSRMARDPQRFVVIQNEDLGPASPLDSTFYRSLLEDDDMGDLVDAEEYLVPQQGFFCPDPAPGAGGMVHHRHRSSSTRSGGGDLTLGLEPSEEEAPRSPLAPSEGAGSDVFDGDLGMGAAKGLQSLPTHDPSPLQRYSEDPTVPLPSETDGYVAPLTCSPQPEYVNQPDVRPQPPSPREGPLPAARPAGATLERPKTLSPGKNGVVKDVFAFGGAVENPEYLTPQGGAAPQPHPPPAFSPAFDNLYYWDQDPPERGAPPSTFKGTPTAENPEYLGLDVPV
Method: as §1, §2

EFGR ASV (Ba/F3 cells) = molecular target: T6, EFGR ASV (Ba/F3 cells) (Homo sapiens, UniProt P00533, INS769ASV); experiment: MTS assay, Ba/F3 cells, EFGR ASV
T6 construct: expressed in transfected cells; host or cells: Ba/F3
T6 sequence (P00533 with tags, fused parts or gaps INS769ASV): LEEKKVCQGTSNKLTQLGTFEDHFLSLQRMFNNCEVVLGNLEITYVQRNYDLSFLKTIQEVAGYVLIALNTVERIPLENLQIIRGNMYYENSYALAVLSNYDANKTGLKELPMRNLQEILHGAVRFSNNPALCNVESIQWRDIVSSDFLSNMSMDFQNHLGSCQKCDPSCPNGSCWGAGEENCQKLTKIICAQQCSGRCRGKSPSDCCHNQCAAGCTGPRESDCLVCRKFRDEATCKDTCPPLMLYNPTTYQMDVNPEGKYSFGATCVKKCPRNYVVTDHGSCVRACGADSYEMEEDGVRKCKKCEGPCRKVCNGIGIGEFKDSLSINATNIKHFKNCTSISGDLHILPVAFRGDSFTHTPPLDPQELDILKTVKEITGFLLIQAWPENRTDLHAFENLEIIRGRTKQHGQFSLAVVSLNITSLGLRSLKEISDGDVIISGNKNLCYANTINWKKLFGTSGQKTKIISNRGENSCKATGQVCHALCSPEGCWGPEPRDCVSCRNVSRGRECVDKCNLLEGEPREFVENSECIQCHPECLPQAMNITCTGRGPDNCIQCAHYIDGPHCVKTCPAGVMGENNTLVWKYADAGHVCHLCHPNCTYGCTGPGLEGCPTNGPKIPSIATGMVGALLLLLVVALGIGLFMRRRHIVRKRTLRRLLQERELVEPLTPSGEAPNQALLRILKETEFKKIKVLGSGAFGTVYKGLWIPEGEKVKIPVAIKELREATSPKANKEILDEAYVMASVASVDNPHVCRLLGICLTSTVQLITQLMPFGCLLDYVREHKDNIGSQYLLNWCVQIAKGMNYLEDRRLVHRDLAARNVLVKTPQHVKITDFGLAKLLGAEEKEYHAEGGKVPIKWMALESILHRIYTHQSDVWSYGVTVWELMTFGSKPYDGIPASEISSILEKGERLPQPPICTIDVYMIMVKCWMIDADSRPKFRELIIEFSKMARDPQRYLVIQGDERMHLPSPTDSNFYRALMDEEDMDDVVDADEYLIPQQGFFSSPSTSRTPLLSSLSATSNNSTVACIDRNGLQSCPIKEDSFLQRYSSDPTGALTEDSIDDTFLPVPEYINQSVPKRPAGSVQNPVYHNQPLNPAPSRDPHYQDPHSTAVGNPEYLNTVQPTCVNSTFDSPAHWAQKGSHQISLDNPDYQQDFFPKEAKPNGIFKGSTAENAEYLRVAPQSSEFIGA
Method: as §1, §2

Row | SMILES | IC50 (HER2 YVMA (Ba/F3 cells)) [µM] | IC50 (HER2 WT (Ba/F3 cells)) [µM] | IC50 (EFGR SVD (Ba/F3 cells)) [µM] | IC50 (EFGR WT (Ba/F3 cells)) [µM] | IC50 (HER2 GSP (Ba/F3 cells)) [µM] | IC50 (EFGR ASV (Ba/F3 cells)) [µM]
1 | C=CC(=O)N1CCC[C@@H](n2nc(C(=O)Nc3ccc(C(=O)N4CCn5ccnc5C4)c(C)c3)c3c(N)ncnc32)C1 [Compound 6] | 7.56 | 5.79 | 7.84 | 9.42 | 5.64 | 6.81
2 | C=CC(=O)N1CCC[C@@H](n2nc(C(=O)Nc3cc(C)cc(CC(=O)N(C)C)c3)c3c(N)ncnc32)C1 [Compound 5] | 4.47 | 4.08 | 7.62 | 8.96 | 2.39 | 5.72
3 | C=CC(=O)N1CCC[C@@H](n2nc(C(=O)Nc3ccc(Cn4ccnc4)c(C)c3)c3c(N)ncnc32)C1 [Compound 4] | 3.16 | 3.85 | 6.04 | 7.16 | 1.44 | 4.53
4 | C=CC(=O)N1CCC[C@@H](n2nc(C(=O)Nc3ccc(CN4CCn5ncnc5C4)c(C)c3)c3c(N)ncnc32)C1 [Compound 8] | 1.85 | 3.24 | 6.75 | 9.46 | 1.39 | 4.27
5 | C=CC(=O)N1CCC[C@@H](n2nc(C(=O)Nc3ccc(C(=O)N4CCn5ncnc5C4)c(C)c3)c3c(N)ncnc32)C1 [Compound 7] | 8.84 | 6.3 | 7.72 | 8.79 | 6.29 | 6.02

These reach a lower IC50 (HER2 YVMA (Ba/F3 cells)). Values come first.

Row | IC50 (HER2 YVMA (Ba/F3 cells)) [µM] | IC50 (HER2 WT (Ba/F3 cells)) [µM] | IC50 (EFGR SVD (Ba/F3 cells)) [µM] | IC50 (EFGR WT (Ba/F3 cells)) [µM] | IC50 (HER2 GSP (Ba/F3 cells)) [µM] | IC50 (EFGR ASV (Ba/F3 cells)) [µM] | SMILES
6 | 1.38 | 2.63 | 5.59 | 7.92 | 1.29 | 1.98 | C=CC(=O)N1CCC[C@@H](n2nc(C(=O)Nc3ccc(CN4CCn5ccnc5C4)c(C)c3)c3c(N)ncnc32)C1 [Compound 9]
7 | 1.33 | 5.96 | – | > 10 | – | – | C=CC(=O)N1CCC[C@@H](n2nc(C(=O)Nc3ccc(Cn4cncn4)c(C)c3)c3c(N)ncnc32)C1 [Compound 11]
8 | 0.58 | 3.43 | – | – | – | – | C=CC(=O)N1CCC[C@@H](n2nc(C(=O)Nc3ccc(-n4ccnc4)c(C)c3)c3c(N)ncnc32)C1 [Compound 10]
9 | 0.206 | 0.164 | 4.48 | 0.921 | 0.0643 | 3.82 | C=CC(=O)N1CCC[C@@H](n2nc(C(=O)Nc3ccc(CC(=O)N(C)C)c(C)c3C)c3c(N)ncnc32)C1 [TAS0728, reference compound]
10 | 0.0559 | 0.193 | 3.98 | 3.27 | 0.0958 | 2.24 | C=CC(=O)N1CCC[C@@H](n2nc(C(=O)Nc3ccc(Oc4ccn5ncnc5c4)c(C)c3)c3c(N)ncnc32)C1 [Compound 2, (R)—N—(4-([1,2,4]triazolo[1,5-a]pyridin-7-yloxy)-3-methylphenyl)-1-(1-acryloylpiperidin-3-yl)-4-amino-1H-pyrazolo[3,4-d]pyrimidine-3-carboxamide]
11 | 0.0455 | 0.0981 | 2.61 | 2.11 | 0.0786 | 1.46 | C=CC(=O)N1CCC[C@@H](n2nc(C(=O)Nc3ccc(Oc4ccn5ncnc5c4)c(Cl)c3)c3c(N)ncnc32)C1 [Compound 3, (R)—N—(4-([1,2,4]triazolo[1,5-a]pyridin-7-yloxy)-3-chlorophenyl)-1-(1-acryloylpiperidin-3-yl)-4-amino-1H-pyrazolo[3,4-d]pyrimicline-3-carboxamide]
12 | 0.0322 | 0.111 | 2.62 | 1.38 | 0.0567 | 1.81 | C=CC(=O)N1CCC[C@@H](n2nc(C(=O)Nc3ccc(Oc4ccn5ncnc5c4)c(C)c3C)c3c(N)ncnc32)C1 [Compound 1, (R)—N—(4-([1,2,4]triazolo[1,5-a]pyridin-7-yloxy)-2,3-dimethylphenyl)-1-(1-acryloylpiperidin-3-yl)-4-amino-1H-pyrazolo[3,4-d]pyrimidine-3-carboxamide]
